{
  "source": "paper PMC3192784",
  "about": "“A Potent Inhibitor of SIK2, 3, 3′, 7-Trihydroxy-4′-Methoxyflavon (4′-O-Methylfisetin), Promotes Melanogenesis in B16F10 Melanoma Cells” (PLoS ONE, 2011)",
  "key": {"[1]": {"target": "T1, SIK2 (salt inducible kinase 2) (Mus musculus, UniProt Q8CFH6)", "T1 construct": "GST-SIK2 expressed in COS-7 cells", "T1 sequence (Q8CFH6 whole entry)": "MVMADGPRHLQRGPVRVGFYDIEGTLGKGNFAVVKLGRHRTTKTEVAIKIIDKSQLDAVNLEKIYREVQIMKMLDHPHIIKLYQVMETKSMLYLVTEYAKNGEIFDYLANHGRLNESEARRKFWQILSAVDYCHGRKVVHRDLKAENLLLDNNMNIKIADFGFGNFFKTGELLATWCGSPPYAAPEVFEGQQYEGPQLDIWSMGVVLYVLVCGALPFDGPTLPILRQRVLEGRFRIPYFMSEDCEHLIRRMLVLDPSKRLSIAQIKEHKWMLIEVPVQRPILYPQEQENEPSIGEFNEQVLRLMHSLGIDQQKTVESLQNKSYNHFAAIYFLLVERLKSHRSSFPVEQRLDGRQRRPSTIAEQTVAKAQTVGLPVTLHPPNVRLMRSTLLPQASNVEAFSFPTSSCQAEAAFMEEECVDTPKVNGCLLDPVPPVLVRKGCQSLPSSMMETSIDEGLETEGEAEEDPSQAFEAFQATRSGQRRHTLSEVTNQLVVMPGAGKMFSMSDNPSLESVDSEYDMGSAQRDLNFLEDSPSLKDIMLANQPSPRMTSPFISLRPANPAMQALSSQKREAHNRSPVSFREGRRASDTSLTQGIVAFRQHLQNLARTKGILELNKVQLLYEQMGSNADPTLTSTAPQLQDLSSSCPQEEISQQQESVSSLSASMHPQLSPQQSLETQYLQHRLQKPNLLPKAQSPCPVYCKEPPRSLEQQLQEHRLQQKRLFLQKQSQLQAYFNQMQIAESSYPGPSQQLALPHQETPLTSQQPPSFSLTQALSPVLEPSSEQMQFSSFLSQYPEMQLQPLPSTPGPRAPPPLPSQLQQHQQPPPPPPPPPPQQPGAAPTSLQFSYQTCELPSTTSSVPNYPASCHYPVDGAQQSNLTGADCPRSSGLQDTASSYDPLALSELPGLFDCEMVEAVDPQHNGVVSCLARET", "test": "in vitro kinase ELISA with GST-TORC2 peptide substrate", "format": "biochemical"}, "[2]": {"target": "T1, SIK2 (salt inducible kinase 2)", "test": "in vitro kinase ELISA with GST-TORC2 peptide substrate", "format": "biochemical", "remark": "listed apart in the source"}},
  "note": "pIC50: −log10 of the molar value.",
  "data": [
    {"smiles": "COc1ccc(-c2cc(=O)c3c(O)cc(O)cc3o2)cc1O", "note": "[diosmetin]", "values": [
      {"measurement": "in vitro kinase ELISA with GST-TORC2 peptide substrate", "setting": "[1]", "result": "50 to 500", "unit": "nM"}
    ]},
    {"smiles": "O=c1c(O)c(-c2ccc(O)c(O)c2)oc2cc(O)ccc12", "note": "[fisetin]", "values": [
      {"measurement": "in vitro kinase ELISA with GST-TORC2 peptide substrate", "setting": "[1]", "result": "~ 50 nM"}
    ]},
    {"smiles": "O=c1cc(-c2ccc(O)c(O)c2)oc2cc(O)cc(O)c12", "note": "[luteolin]", "values": [
      {"measurement": "in vitro kinase ELISA with GST-TORC2 peptide substrate", "setting": "[1]", "result": "efficiency of SIK2-kinase inhibition in vitro by their non-methylated cognates (fisetin > luteolin > quercetin)"}
    ]},
    {"smiles": "O=c1c(O)c(-c2ccc(O)c(O)c2)oc2cc(O)cc(O)c12", "note": "[quercetin]", "values": [
      {"measurement": "pIC50", "setting": "[2]", "result": 6.30}
    ]}
  ]
}
